Here are results for four compounds from patent publication US9392791B2, “Amide compound and use thereof for pest control” (Sumitomo Chemical Company, priority 2012, dated 2016).

The subject of data set [1] is Haemaphysalis longicornis. The data set is described as follows: Test Example 11: coated screw tube, nymphal ticks Haemaphysalis longicornis. It counts as in vivo. To be noted: 2 mg compound in 0.2 mL acetone coated on inner wall of screw tube, non-blood-sucking nymphal ticks, after 2 days. On the procedure:
2 mg of each of Compounds of Present Invention 1, 2, 13, 20, 21, 45 to 47, 52 to 55 and 57 and Intermediate Compound M6-13 was weighed in a screw tube (Maruemu No. 5; 27×55 mm), and 0.2 mL of acetone was added thereto and sealed with a cap to dissolve the compound. The screw tube was rotated and inverted to uniformity coat the drug solution onto the whole inner wall of the tube. After removing the cap, the solution was air-dried for about 2 hours, then non-blood-sucking nymphal ticks, Haemaphysalis longicornis (5 ticks/group) were released, and the tube was sealed with the cap. After 2 days, the number of dead ticks was examined, and the mortality was calculated according to the following equation: Mortality (%)=100×(Number of dead ticks/Number of tested ticks).

In data set [2] the test system is Musca domestica. In words: Test Example 8: treated filter paper with sucrose bait, Musca domestica female adults. It counts as in vivo. To be noted: 500 ppm, 0.7 ml on filter paper, after 24 hours. As for the experimental part: The formulations of Compounds of Present Invention 1 to 3, 9, 13 to 16 and 57 as obtained in Formulation Example 5 were diluted with water, so as to have a concentration of the active ingredient of 500 ppm, to prepare a diluted liquid for test.
A filter paper having a diameter of 5.5 cm was spread on the bottom of a polyethylene cup having the same diameter and 0.7 ml of the diluted liquid for test was added dropwise onto the filter paper, and 30 mg of sucrose was uniformly placed as bait. Into the polyethylene cup, 10 female adults of Musca domestica were released, and the cup was sealed with a lid. After 24 hours, survived and dead number of Musca domestica was examined, and the mortality was calculated.

`CCSc1ccccc1C(=O)N(C)c1ccc(C(F)(F)C(F)(F)F)cn1` [compound 13]: the mortality (commonly the share of the test organisms that died) in data set [1] came out at 100%. On the same count and under the same terms, under `CC[S+]([O-])c1cc(C(F)(F)F)ccc1C(=O)N(C)c1ccc(C(F)(F)C(F)(F)F)cn1` (stereo not shown) [compound 20] stands 100%; under `CC[S+]([O-])c1cc(C(F)(F)F)ccc1C(=O)N(C)c1ccc(SC(F)(F)F)cn1` (stereo not shown) [compound 21], 100%. The compound `CC[S+]([O-])c1ccccc1C(=O)N(C)c1ccc(SC(F)(F)F)cn1` (stereo not shown) [compound 57] registered a mortality in data set [2] of 100%.
